# Results as given in ChEMBL document CHEMBL4507259 (2021).
# Legend:
# [1] = molecular target: Sodium-dependent dopamine transporter (Homo sapiens, UniProt Q01959); test: dopamine transporter (h) CEREP ligand profiling; conditions: filed as antagonist, Compound concentration 10.0 uM
# [2] = molecular target: Kappa-type opioid receptor (Homo sapiens) (UniProt P41145); test: kappa (KOP) CEREP ligand profiling; conditions: filed as agonist; Compound concentration 10.0 uM
# [3] = molecular target: Na+ channel (site 2); sodium channel alpha subunit (family) (Homo sapiens, UniProt P35498+P35499+Q01118+Q14524+Q15858+Q99250+Q9NY46+Q9UI33+Q9UQD0+Q9Y5Y9); test: Na+ channel (site 2) CEREP ligand profiling; assay type: protein assay; conditions: compound concentration 10 uM
# [4] = molecular target: T1, Muscarinic acetylcholine receptor M5 (Homo sapiens) (UniProt P08912); test: M5 (h) CEREP ligand profiling; conditions: filed as antagonist, Compound concentration 10.0 uM
# T1 sequence (whole entry): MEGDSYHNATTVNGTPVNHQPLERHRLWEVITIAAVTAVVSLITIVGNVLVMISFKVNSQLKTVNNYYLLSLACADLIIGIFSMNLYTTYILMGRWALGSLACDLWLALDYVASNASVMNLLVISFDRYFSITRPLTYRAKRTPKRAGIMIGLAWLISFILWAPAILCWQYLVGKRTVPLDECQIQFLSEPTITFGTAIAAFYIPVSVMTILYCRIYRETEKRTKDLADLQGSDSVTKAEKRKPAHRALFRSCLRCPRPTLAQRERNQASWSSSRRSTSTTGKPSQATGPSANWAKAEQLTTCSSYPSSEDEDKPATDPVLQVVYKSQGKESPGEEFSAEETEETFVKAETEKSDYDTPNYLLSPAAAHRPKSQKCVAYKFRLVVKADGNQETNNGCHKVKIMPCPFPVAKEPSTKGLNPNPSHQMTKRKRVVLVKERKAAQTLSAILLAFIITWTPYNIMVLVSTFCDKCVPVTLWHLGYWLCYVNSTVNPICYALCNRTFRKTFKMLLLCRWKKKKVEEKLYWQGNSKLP
# [5] = molecular target: Vasoactive intestinal polypeptide receptor 1 (Homo sapiens) (UniProt P32241); test: VPAC1 (VIP1) (h) CEREP ligand profiling; conditions: filed as agonist, Compound concentration 10.0 uM
# [6] = tested on: Tyrosine-protein kinase ABL1 (Homo sapiens), P00519 [T315I]; conditions: Compound concentration 1000.0 nM
# [7] = molecular target: NUAK family SNF1-like kinase 1 (Homo sapiens) (UniProt O60285); conditions: Compound concentration 1000.0 nM
# NUAK family SNF1-like kinase 1 (Homo sapiens), sequence (O60285 whole entry): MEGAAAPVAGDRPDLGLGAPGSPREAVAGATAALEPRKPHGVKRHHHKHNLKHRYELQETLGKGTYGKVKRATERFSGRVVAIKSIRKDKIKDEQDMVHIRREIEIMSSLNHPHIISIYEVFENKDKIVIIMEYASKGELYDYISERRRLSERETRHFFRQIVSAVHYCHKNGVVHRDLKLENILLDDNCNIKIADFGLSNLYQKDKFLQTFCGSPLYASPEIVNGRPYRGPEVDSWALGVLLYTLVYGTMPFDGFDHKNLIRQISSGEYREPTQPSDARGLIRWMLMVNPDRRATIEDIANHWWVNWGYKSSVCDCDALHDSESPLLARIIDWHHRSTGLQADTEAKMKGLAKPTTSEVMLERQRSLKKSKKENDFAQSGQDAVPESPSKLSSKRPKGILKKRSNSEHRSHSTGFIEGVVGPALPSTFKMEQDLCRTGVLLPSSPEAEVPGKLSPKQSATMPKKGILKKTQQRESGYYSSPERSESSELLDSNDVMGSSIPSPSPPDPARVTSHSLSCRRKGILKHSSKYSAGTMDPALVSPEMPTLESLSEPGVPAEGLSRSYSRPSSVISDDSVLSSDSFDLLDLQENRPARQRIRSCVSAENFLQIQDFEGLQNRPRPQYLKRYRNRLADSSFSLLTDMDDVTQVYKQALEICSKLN
# [8] = molecular target: Peripheral plasma membrane protein CASK (Homo sapiens) (UniProt O14936); conditions: Compound concentration 1000.0 nM
# [9] = molecular target: Cyclin-dependent kinase 11A (Homo sapiens) (UniProt Q9UQ88); conditions: Compound concentration 1000.0 nM
# [10] = molecular target: Macrophage colony-stimulating factor 1 receptor (Homo sapiens) (UniProt P07333); conditions: Compound concentration 1000.0 nM
# [11] = tested on: Epidermal growth factor receptor (Homo sapiens), P00533 [L858R]; conditions: Compound concentration 1000.0 nM
# [12] = molecular target: Ephrin type-B receptor 1 (Homo sapiens) (UniProt P54762); conditions: Compound concentration 1000.0 nM
# Ephrin type-B receptor 1 (Homo sapiens), sequence (P54762 whole entry): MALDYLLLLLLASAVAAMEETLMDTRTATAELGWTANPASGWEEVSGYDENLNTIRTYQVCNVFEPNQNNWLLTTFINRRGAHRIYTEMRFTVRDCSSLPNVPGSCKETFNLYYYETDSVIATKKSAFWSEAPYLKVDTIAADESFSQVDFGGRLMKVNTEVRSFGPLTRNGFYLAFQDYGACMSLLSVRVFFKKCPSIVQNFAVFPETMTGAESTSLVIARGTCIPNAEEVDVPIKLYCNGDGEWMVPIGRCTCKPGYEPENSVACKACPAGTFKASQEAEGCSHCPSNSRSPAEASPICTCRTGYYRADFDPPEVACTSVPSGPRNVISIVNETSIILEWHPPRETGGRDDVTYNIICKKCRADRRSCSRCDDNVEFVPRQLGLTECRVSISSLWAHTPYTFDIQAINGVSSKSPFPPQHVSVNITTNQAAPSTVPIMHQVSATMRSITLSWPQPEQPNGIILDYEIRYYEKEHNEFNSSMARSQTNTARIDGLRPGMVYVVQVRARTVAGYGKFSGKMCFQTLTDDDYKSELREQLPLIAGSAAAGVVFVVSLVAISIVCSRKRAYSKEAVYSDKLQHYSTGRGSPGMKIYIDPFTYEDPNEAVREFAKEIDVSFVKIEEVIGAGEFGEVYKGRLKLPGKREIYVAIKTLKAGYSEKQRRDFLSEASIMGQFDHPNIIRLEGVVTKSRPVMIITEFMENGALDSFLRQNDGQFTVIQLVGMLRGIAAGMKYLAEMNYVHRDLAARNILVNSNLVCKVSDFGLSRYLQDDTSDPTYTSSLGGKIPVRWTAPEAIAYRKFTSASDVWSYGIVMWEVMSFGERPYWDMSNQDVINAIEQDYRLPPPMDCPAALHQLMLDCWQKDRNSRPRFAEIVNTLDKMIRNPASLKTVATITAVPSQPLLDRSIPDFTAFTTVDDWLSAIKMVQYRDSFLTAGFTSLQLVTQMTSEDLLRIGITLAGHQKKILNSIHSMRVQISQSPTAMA
# [13] = molecular target: Mitogen-activated protein kinase 3 (Homo sapiens) (UniProt P27361); conditions: Compound concentration 1000.0 nM
# [14] = molecular target: Fibroblast growth factor receptor 3 (Homo sapiens) (UniProt P22607); conditions: Compound concentration 1000.0 nM
# [15] = tested on: Receptor-type tyrosine-protein kinase FLT3 (Homo sapiens), P36888 [N841I]; conditions: Compound concentration 1000.0 nM
# [16] = molecular target: Rhodopsin kinase GRK7 (Homo sapiens) (UniProt Q8WTQ7); conditions: Compound concentration 1000.0 nM
# [17] = molecular target: Mitogen-activated protein kinase kinase kinase 15 (Homo sapiens) (UniProt Q6ZN16); conditions: Compound concentration 1000.0 nM
# [18] = molecular target: Serine/threonine-protein kinase MARK2 (Homo sapiens) (UniProt Q7KZI7); conditions: Compound concentration 1000.0 nM
# Serine/threonine-protein kinase MARK2 (Homo sapiens), sequence (Q7KZI7 whole entry): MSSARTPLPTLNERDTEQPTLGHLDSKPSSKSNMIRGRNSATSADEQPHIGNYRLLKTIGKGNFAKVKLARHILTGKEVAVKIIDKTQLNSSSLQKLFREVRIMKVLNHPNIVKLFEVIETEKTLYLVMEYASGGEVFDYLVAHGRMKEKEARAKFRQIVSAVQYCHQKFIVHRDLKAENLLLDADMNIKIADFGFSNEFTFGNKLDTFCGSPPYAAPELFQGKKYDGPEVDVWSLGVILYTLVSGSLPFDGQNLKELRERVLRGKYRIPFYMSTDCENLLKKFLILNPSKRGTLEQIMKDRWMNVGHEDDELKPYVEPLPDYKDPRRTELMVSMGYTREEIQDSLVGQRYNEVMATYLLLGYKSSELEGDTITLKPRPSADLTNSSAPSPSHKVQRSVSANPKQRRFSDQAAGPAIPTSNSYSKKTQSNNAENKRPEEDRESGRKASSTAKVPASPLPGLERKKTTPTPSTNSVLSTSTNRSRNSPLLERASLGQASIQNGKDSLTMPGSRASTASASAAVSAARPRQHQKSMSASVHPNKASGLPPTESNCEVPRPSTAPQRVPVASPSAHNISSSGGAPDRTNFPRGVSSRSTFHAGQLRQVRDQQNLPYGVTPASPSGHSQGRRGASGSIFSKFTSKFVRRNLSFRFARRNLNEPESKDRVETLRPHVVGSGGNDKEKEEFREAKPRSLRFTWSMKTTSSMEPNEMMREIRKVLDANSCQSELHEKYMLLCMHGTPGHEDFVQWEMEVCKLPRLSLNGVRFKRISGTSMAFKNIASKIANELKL
# [19] = molecular target: Cyclin-dependent kinase 16 (Homo sapiens) (UniProt Q00536); conditions: Compound concentration 1000.0 nM
# Cyclin-dependent kinase 16 (Homo sapiens), sequence (Q00536 whole entry, canonical isoform): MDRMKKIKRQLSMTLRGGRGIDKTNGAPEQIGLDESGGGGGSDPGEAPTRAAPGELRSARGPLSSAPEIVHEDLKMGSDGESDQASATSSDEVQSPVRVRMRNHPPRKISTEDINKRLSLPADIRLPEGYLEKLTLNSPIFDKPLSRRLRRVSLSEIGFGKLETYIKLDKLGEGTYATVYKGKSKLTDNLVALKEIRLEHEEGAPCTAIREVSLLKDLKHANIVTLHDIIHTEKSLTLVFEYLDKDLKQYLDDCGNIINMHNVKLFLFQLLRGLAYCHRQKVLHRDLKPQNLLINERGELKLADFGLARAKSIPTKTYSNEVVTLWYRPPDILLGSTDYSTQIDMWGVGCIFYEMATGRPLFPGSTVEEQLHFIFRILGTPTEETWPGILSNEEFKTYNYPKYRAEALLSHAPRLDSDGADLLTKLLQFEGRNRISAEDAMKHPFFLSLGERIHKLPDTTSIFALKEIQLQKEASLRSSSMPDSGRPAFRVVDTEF
# [20] = tested on: Phosphatidylinositol 4,5-bisphosphate 3-kinase catalytic subunit alpha isoform (Homo sapiens), P42336 [E545K]; conditions: Compound concentration 1000.0 nM
# [21] = molecular target: Phosphatidylinositol 4,5-bisphosphate 3-kinase catalytic subunit beta isoform (Homo sapiens) (UniProt P42338); conditions: Compound concentration 1000.0 nM
# [22] = molecular target: Serine/threonine-protein kinase pim-1 (Homo sapiens) (UniProt P11309); conditions: Compound concentration 1000.0 nM
# [23] = molecular target: Phosphatidylinositol 4-phosphate 5-kinase type-1 alpha (Homo sapiens) (UniProt Q99755); conditions: Compound concentration 1000.0 nM
# [24] = molecular target: Phosphatidylinositol 5-phosphate 4-kinase type-2 gamma (Homo sapiens) (UniProt Q8TBX8); conditions: Compound concentration 1000.0 nM
# Phosphatidylinositol 5-phosphate 4-kinase type-2 gamma (Homo sapiens), sequence (Q8TBX8 whole entry): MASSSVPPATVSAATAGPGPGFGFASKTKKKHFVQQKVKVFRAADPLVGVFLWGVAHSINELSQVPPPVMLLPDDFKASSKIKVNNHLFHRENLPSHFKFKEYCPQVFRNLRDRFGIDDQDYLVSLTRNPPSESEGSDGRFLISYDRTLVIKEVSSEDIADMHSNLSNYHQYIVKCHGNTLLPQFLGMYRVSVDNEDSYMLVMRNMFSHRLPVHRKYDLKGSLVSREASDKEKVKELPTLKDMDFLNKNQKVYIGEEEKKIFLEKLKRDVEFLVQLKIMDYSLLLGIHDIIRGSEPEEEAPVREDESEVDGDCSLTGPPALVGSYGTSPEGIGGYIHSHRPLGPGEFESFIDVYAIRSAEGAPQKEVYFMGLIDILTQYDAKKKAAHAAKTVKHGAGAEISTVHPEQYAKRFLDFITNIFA
# [25] = molecular target: Serine/threonine-protein kinase PLK3 (Homo sapiens) (UniProt Q9H4B4); conditions: Compound concentration 1000.0 nM
# [26] = molecular target: Protein kinase C delta type (Homo sapiens) (UniProt Q05655); conditions: Compound concentration 1000.0 nM
# Protein kinase C delta type (Homo sapiens), sequence (Q05655 whole entry, looked up): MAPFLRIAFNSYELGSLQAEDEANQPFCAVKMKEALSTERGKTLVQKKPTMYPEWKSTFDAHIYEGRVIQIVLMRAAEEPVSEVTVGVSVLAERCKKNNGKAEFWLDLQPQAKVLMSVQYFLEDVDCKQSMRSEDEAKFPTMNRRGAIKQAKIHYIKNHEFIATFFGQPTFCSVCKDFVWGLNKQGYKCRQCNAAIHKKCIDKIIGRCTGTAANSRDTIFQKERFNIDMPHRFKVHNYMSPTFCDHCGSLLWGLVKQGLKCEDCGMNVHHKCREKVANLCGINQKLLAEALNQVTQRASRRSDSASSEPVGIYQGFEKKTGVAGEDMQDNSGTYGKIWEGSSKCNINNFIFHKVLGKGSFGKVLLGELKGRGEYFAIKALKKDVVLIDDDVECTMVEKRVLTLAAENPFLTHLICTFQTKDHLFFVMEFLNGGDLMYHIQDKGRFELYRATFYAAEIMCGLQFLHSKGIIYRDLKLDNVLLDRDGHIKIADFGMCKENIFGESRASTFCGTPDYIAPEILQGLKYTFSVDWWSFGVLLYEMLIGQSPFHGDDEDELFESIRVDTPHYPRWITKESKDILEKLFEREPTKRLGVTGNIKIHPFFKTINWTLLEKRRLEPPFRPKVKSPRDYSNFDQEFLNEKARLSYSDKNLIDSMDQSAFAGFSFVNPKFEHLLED
# [27] = molecular target: Protein kinase C epsilon type (Homo sapiens) (UniProt Q02156); conditions: Compound concentration 1000.0 nM
# [28] = molecular target: Proto-oncogene tyrosine-protein kinase receptor Ret (Homo sapiens) (UniProt P07949); conditions: Compound concentration 1000.0 nM
# [29] = molecular target: Serine/threonine-protein kinase Sgk2 (Homo sapiens) (UniProt Q9HBY8); conditions: Compound concentration 1000.0 nM
# Serine/threonine-protein kinase Sgk2 (Homo sapiens), sequence (Q9HBY8 whole entry): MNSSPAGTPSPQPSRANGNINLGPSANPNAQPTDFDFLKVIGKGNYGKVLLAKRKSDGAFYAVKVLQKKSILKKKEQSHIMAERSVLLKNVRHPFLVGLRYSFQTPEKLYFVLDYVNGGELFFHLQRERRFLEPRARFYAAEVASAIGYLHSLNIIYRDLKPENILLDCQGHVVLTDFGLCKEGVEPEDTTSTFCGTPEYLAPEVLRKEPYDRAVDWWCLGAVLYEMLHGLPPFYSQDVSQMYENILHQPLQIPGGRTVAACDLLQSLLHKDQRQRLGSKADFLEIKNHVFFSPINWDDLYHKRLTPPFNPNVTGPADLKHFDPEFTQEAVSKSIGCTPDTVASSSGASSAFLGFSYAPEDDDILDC
# [30] = molecular target: Angiopoietin-1 receptor (Homo sapiens) (UniProt Q02763); conditions: Compound concentration 1000.0 nM
# [31] = molecular target: TRAF2 and NCK-interacting protein kinase (Homo sapiens) (UniProt Q9UKE5); conditions: Compound concentration 1000.0 nM
# [32] = molecular target: Non-receptor tyrosine-protein kinase TYK2 (Homo sapiens) (UniProt P29597); conditions: Compound concentration 1000.0 nM
# [33] = molecular target: Serine/threonine-protein kinase ULK3 (Homo sapiens) (UniProt Q6PHR2); conditions: Compound concentration 1000.0 nM
# [34] = molecular target: 5-hydroxytryptamine receptor 5A (Homo sapiens) (UniProt P47898); conditions: Compound concentration 10.0 uM
# [35] = molecular target: D(3) dopamine receptor (Homo sapiens, UniProt P35462); conditions: Compound concentration 10.0 uM
# [36] = molecular target: Alpha-2C adrenergic receptor (Homo sapiens) (UniProt P18825); conditions: Compound concentration 10.0 uM
# Kappa-type opioid receptor (Homo sapiens), sequence (P41145 whole entry): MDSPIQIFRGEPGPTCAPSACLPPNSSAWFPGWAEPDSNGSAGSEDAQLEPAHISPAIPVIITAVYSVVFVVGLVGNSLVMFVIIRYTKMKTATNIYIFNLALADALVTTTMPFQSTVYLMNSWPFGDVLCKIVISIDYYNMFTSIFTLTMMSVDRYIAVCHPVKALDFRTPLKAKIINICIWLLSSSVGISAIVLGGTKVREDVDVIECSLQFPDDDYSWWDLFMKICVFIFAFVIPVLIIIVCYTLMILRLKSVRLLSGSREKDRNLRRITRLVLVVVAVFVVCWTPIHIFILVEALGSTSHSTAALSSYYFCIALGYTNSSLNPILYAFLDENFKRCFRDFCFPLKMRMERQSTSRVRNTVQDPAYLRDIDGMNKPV
SMILES,inhibition [1],inhibition [2],inhibition at 10 µM [3],inhibition [4],inhibition [5],residual activity [6],residual activity [7],residual activity [8],residual activity [9],residual activity [10],residual activity [11],residual activity [12],residual activity [13],residual activity [14],residual activity [15],residual activity [16],residual activity [17],residual activity [18],residual activity [19],residual activity [20],further results
CNC(=O)Nc1ccc2c(c1)[C@@]1(CC2)OC(=O)N(CC(=O)N(Cc2ccc(F)cc2)[C@@H](C)C(F)(F)F)C1=O [A-486],27%,12%,-5% (not active),-8%,-8%,87%,88%,66%,94%,100%,100%,100%,100%,92%,100%,85%,90%,100%,83%,76%,residual activity [21]: 97%; residual activity [22]: 100%; residual activity [23]: 89%; residual activity [24]: 100%; residual activity [25]: 84%; residual activity [26]: 75%; residual activity [27]: 99%; residual activity [28]: 93%; residual activity [29]: 88%; residual activity [30]: 100%; residual activity [31]: 87%; residual activity [32]: 92%; residual activity [33]: 55%; inhibition [34]: 2.78%; inhibition [35]: 57.8%; inhibition [36]: 8.88%
CNC(=O)Nc1ccc2c(c1)CC[C@@]21OC(=O)N(CC(=O)N(Cc2ccc(F)cc2)[C@@H](C)C(F)(F)F)C1=O [A-485],94%,28%,19% (not active),8%,-5%,100%,94%,86%,83%,90%,96%,97%,92%,82%,100%,83%,77%,100%,75%,80%,residual activity [21]: 94%; residual activity [22]: 100%; residual activity [23]: 95%; residual activity [24]: 93%; residual activity [25]: 86%; residual activity [26]: 76%; residual activity [27]: 22%; residual activity [28]: 90%; residual activity [29]: 100%; residual activity [30]: 87%; residual activity [31]: 93%; residual activity [32]: 91%; residual activity [33]: 90%; inhibition [34]: 5.99%; inhibition [35]: 1.52%; inhibition [36]: 20.7%
